This is an account of results in PMC5668434, “Modulation of telomere protection by the PI3K/AKT pathway” (Nature Communications, 2017).

The target of one test is T1, CK1-alpha1 (Homo sapiens, UniProt P48729).
T1 construct: purchased ProQinase
Nature of the test: ProQinase kinase panel. As to conditions: read-out: Inh (%) at 1µM, CK1-alpha1. The format is biochemical. The procedure: (§1) Supplementary Table 1: Kinase selectivity profile of ETP-47037 and ETP-47228 at 1 µM. Selectivity against protein kinases was determined from evaluation of compounds at 1µM in ProQinase’s 24 selected panel that represents the ACG, STE, TKL, TK, CMGC CAMK and CK1 kinase families.

Test [1] relates to panel of 24 kinases representing the human kinome. As to the kind of experiment: ProQinase 24 kinase selectivity panel (whole panel). The format is biochemical. As to conditions: 1 µM. The procedure: The kinase selectivity of the inhibitors used here was ensured in order to discard potential off-targets effects contributing to the observed TRF1 modulation.
as §1

Test [2] concerns TRF1 foci in p53−/− mouse embryo fibroblasts (MEF). As to the kind of experiment: TRF1 foci immunofluorescence in p53−/− MEFs. The format is cell-based. As to conditions: 10 μM, 24 h. The procedure: We then checked whether PI3Kα/AKT inhibition also leads to decreased TRF1 foci in an additional cell type to CHA-9.3 cells. Thus, we used p53 ^−/− mouse embryo fibroblasts (MEF). We treated these MEFs either with the AKT inhibitor MK-2206 or with ETP-47037 at 10 μM concentration for 24 h and analyzed TRF1 foci by immunofluorescence.
TRF1 immunofluorescence of TRF1 was performed in lung tumor-derived cell line (CHA9.3) and in MEFs[39]. A rat monoclonal antibody against mouse TRF1 developed by the Monoclonal antibody unit at CNIO was used to detect endogenous TRF1 (1:500). GFP-TRF1 fluorescence was directly measured in cells fixed in paraformaldehyde. For quantification of TRF1 foci intensity, pictures of fixed cells were automatically acquired from each well by the Opera HCS system (Perkin Elmer). Sixty images of random fields per well, with a 40× magnification lens, were taken under non-saturating conditions. At least 1 × 10^3 cells were analyzed for each well. Briefly, images were segmented using the DAPI staining to generate masks matching cell nuclei from which-TRF1 foci were analyzed.

In the next test the test system is IPSCs. Details: method as in PMID 25971796. As to conditions: cited from earlier work.
The test system of test [3] is TRF1 foci in CHA-9.3 mouse lung tumor cell line. Nature of the test: TRF1 foci immunofluorescence in CHA-9.3 cells. It counts as cell-based. As to conditions: for Inhibition of TRF1 foci (in words): 10 μM (GSK-2126458 1.0 μM), 24 h, CHA-9.3; for TRF1 levels as compared to bortezomib/DMSO-treated control cells: 10 μM plus bortezomib 50 nM, CHA 9-3.
Test [4] deals with p-AKT S473 in CHA-9.3 mouse lung cancer cell line. As to the kind of experiment: Western blot of AKT phosphorylation at Ser473 in CHA-9.3 cells. It counts as cell-based. As to conditions: for p-AKT S473 inhibition (in words): 10 μM time course; for inhibition at 10 µM: Mus musculus. The procedure:
These new chemical probes were prepared by replacement of a single key oxygen atom from the morpholine moiety by a methylene group, generating the piperidine derivatives ETP-51259 and ETP-50952 (Fig. 1a). To assess their PI3K cellular activity, we measured phosphorylation of residue Ser473 in AKT (p-AKT S473), a PI3K downstream target[61]–[63], by western blot analysis. To this end, we used the CHA-9.3 mouse lung cancer cell line previously generated by us[39]. […] Of note, the inhibitory activity of ETP-47037 was more prolonged than that of ETP-47228. Thus, ETP-47037 mediated p-AKT S473 inhibition was maintained during the 24-hour treatment while the ETP-47228 mediated inhibition decreased 35% after 24 h as compared to 1-h treatment but still was able to inhibit the pathway above 50% (Fig. 1c).
For detection of AKT, PRAS40 (T246) and pS6 in CHA9.3 cells, untreated control (DMSO) or treated with the indicated inhibitors, were lysed in RIPA buffer supplemented with 100 mM pefablock (Roche Diagnostics) and protease inhibitor cocktail (Roche Molecular Biochemicals). Proteins were resolved on 10% SDS-PAGE, and transferred to nitrocellulose membrane (Amersham^TM Protan^TM 0.2 µm nNC). Membranes were incubated with antibodies against phospho-AKT (Ser473), AKT, phospo-S6 (Ser 235/236), and S6Ribosomal from Cell Signaling, phospo-PRAS40 (Thr246) from BIOSURCE and anti α-tubulin form Sigma, overnight at 4 °C. After washing, blots were incubated with secondary antibody: Alexa Fluor 680 goat anti-rabbit IgG (Invitrogen) or anti-mouse IgG DyLight 800 conjugated (Thermo Scientific), and visualized using an Odyssey infrared imaging system (Li-Cor Biosciences).

The next test has as its target T2, mTOR (FRAP1) (Homo sapiens, UniProt P42345).
T2 construct: purchased ThermoFisher PV4753
As to the kind of experiment: mTOR biochemical assay (LanthaScreen). (Time-resolved FRET reads energy transfer from a long-lived donor to a nearby acceptor.)

Test [5] has as its system aggressive lung cancer in mice. Details: method as in PMID 25971796. As to conditions: mice with aggressive lung cancer; cited from earlier work.
The target of the next test is T3, PI3K (p110α) (Homo sapiens, UniProt P42336).
T3 construct: purchased Cama Biosciences (sic; Carna Biosciences) #07CBS-0402A
Nature of the test: PI3K alpha biochemical assay (ADP Hunter Plus). As to conditions: internal data; read-out: PI3Kα IC50.

Another test relates to CHA 9-3 cells. Nature of the test: Multitelomeric signals (MTS) by Q-FISH on metaphase spreads. The format is cell-based, mouse. As to conditions: 10 μM, 24 h. An excerpt: Trf1 abrogation is known to lead to a persistent DDR at telomeres, and to induction of telomere-induced chromosomal aberrations[28]–[30]. Trf1 genetic deletion induces the so-called multitelomeric signals (MTS), a chromosomal aberration related to increased telomere fragility during DNA replication, [29]. […] To this end, we treated CHA 9-3 cells with either DMSO, the AKT inhibitor MK-2206 (AKTi) and the PI3K inhibitors ETP-47037 or ETP-47228. For detection of MTS, we performed quantitative fluorescence in situ hybridization (Q-FISH) analysis on metaphase spreads using a telomeric probe to visualize telomeres (“Methods” section). MTS are visualized by presenting a multi-dot pattern at chromosome ends in contrast to normal telomeres that show a single dot at each chromosome end.
Lung cancer-derived cell line (CHA-9-3) and immortalized P110α ^lox/lox MEFS were treated either with 10 µM of ETP-47037, ETP-47228, or AKTi (MK-2206) for 24 h. Q-FISH in metaphase spreads was performed as described above, but increasing the concentration of formamide in both the incubation and the washes to 70%.

In test [6] the test system is TRF1 protein in CHA 9-3 nuclear extracts. As to the kind of experiment: Western blot of nuclear TRF1 in CHA 9-3 cells. It counts as cell-based, mouse. As to conditions: 10 μM. The procedure:
Blots were incubated with the primary antibodies anti-TRF1 1:500 (home-made monoclonal Rat, CNIO; TRF-78, ABCAM, ab10579) and with anti-SMC1 1:2000 (Bethyl Laboratories #A300-055A) as loading control. For nuclear protein preparation, the Nuclear/Cytosol Fractionation Kit (K266-100, BioVision) was used according to the manufactures protocol.
A general note: Immunoblotting shows a protein as a band on a membrane.

[7] abbreviates: 1 h, 1 h, read-out: Inhibition pAKT (Ser 473) with regard to DMSO.
The mark [8] stands for this setting: 4 h, 4 h, read-out: Inhibition pAKT (Ser 473) with regard to DMSO.
Setting [9] is: 8 h, 8 h, read-out: Inhibition pAKT (Ser 473) with regard to DMSO.
Where [10] appears, read: 16 h, 16 h, read-out: Inhibition pAKT (Ser 473) with regard to DMSO.
[11] abbreviates: 24 h, 24 h, read-out: Inhibition pAKT (Ser 473) with regard to DMSO.

Like-named read-outs stand apart in the source and are kept apart here.

T2 sequence (P42345 1360-2549 limits assumed): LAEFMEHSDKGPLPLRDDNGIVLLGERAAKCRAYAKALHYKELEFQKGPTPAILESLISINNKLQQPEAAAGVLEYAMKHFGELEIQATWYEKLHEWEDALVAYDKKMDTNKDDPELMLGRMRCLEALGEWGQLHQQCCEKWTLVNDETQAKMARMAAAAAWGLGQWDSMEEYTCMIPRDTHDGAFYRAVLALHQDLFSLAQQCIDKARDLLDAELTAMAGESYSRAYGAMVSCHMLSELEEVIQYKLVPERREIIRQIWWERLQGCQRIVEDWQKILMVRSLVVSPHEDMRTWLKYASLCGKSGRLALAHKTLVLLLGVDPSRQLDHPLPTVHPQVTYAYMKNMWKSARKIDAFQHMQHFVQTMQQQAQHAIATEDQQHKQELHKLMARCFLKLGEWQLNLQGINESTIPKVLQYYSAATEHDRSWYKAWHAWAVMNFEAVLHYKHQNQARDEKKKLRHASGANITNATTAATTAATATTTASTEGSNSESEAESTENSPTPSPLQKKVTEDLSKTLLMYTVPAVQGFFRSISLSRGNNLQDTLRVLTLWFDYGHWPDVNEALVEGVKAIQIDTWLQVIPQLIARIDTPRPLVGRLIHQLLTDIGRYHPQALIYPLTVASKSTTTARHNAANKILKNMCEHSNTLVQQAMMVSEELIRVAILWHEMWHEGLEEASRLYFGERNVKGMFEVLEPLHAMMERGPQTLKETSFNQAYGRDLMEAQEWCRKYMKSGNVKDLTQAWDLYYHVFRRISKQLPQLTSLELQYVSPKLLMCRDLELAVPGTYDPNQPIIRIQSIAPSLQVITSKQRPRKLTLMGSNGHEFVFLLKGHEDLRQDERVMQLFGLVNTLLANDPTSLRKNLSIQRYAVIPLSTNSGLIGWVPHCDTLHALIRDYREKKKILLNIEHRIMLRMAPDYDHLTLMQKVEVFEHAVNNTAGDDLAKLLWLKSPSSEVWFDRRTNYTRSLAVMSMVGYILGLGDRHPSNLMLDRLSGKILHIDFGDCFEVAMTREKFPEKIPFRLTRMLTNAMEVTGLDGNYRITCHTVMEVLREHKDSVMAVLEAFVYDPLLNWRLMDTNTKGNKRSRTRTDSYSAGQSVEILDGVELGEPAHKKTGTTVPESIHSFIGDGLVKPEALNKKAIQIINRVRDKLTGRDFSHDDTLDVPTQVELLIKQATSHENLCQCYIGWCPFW
T1 sequence (P48729 whole entry): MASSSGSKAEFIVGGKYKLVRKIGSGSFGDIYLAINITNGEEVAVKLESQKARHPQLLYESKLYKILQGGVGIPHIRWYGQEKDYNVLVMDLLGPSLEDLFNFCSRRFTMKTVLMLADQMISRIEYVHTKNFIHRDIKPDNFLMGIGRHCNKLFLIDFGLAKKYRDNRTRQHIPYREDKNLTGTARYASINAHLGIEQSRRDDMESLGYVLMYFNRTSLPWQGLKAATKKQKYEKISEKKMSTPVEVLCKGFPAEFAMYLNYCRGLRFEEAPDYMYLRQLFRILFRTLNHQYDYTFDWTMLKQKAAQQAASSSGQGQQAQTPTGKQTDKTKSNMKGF
T3 sequence (P42336 whole entry): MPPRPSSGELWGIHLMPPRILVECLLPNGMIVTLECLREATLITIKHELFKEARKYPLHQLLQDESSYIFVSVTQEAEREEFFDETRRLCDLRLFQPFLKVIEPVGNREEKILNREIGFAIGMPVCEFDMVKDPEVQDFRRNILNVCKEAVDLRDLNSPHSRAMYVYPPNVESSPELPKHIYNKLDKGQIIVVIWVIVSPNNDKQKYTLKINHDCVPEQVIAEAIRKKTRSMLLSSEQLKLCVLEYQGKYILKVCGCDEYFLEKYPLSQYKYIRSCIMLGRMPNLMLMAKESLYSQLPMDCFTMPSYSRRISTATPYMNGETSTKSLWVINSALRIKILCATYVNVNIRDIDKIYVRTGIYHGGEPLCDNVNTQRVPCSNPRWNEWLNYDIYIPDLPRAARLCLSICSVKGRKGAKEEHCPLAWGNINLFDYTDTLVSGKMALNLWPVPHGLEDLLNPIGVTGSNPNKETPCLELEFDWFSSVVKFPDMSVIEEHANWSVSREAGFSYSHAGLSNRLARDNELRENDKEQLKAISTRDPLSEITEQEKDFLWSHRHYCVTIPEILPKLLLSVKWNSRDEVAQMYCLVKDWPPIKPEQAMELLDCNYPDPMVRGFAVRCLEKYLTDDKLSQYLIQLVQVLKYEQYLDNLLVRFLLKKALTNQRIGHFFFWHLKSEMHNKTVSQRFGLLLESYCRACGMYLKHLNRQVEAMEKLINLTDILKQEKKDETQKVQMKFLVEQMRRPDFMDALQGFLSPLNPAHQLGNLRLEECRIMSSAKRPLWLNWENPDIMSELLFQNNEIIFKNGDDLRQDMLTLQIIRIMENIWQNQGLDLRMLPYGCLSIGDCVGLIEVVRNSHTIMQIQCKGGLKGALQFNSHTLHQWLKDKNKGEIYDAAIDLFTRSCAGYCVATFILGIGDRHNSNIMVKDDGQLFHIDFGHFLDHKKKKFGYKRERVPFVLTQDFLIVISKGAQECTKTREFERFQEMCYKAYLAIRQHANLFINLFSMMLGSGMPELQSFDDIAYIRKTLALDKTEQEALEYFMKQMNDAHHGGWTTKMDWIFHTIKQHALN
T3 sequence (P27986 whole entry partner): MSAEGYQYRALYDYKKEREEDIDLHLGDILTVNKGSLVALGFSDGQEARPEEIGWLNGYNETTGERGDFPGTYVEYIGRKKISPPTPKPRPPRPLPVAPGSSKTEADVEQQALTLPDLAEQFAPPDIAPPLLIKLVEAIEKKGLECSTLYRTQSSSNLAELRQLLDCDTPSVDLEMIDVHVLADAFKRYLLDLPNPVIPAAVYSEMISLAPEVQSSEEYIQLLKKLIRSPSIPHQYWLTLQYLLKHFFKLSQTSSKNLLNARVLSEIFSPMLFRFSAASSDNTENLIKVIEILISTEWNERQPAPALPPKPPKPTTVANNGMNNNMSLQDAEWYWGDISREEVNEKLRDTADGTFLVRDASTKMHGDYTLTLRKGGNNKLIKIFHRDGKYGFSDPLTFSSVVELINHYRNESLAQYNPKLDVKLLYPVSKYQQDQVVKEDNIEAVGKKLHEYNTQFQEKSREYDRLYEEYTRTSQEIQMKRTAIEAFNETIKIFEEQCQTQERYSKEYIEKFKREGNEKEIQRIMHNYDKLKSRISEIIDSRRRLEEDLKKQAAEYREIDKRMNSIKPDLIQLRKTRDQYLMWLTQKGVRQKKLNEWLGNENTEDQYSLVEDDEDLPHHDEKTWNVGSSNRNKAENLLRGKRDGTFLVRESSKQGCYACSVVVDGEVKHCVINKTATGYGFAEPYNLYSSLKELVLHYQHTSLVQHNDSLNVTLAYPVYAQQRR

The term IC50 denotes the concentration needed to halve the response being measured. `CS(=O)(=O)N1CCN(Cc2cc3c(N4CCOCC4)nc(-c4cnc(N)nc4)cn3n2)CC1` [ETP-47037]: the inhibition at 1 µM at CK1-alpha1 was -6%. For the same compound, the “Inhibition of any kinase of the 24 kinase panel (in words)” value in test [1] is recorded as “negligible inhibition of any kinase tested”. For the same compound, the “Reduction in TRF1 foci intensity” value in test [2] came out at 34%. For the same compound, the “Formation of MTS in IPSCs” value in the test with IPSCs is “induce formation of MTS”. Also, the “Inhibition of TRF1 foci (in words)” value in test [3] is on record as “efficient inhibition of TRF1 foci”. For the same compound, in test [3], the “TRF1 levels as compared to bortezomib/DMSO-treated control cells” value was “significantly lower”. Moreover, the “p-AKT S473 inhibition (in words)” value in [4] is “strongly inhibited”. Moreover, the inhibition at 10 µM in test [4] (setting [7]) was 92%; in test [4] (setting [8]), 97%; in test [4] (setting [9]) it was 96%; in test [4] (setting [10]), 97%; in [4] (setting [11]), 94%. Further, the figures for the IC50 at mTOR (FRAP1) (as given in the text) and at PI3K (p110α) were 1700 nM and 0.99 nM, respectively. Further, the “Telomere TRF1 foci in vivo” value in [5] is “significantly decreased”. Also, the “Telomeric DNA damage in vivo” value in test [5] is “induced telomeric DNA damage”. In addition, the “Tumor growth as compared to non-treated mice” value in test [5] is given as “blocked tumor growth”. Besides, the “Frequency of MTS events per metaphase compared to DMSO” value in the test with CHA 9-3 cells is given as “significantly increased”. The “TRF1 protein levels in nuclear extracts” value in test [6] is “significantly decreased”.
As for `Cc1cnc2c(N3CCOCC3)nc(-c3ccc(NC(=O)Nc4ccc(C(=O)N5CCN(C)CC5)cc4)cc3)cn12` [ETP-47228], the inhibition at 1 µM at CK1-alpha1 was found to be 2%. Moreover, the “Inhibition of any kinase of the 24 kinase panel (in words)” value in [1] was “negligible inhibition of any kinase tested”. For the same compound, the “Formation of MTS in IPSCs” value in the test on IPSCs is “induce formation of MTS”. Further, in test [3], the “Inhibition of TRF1 foci (in words)” value is “efficient inhibition of TRF1 foci”. In addition, the “TRF1 levels as compared to bortezomib/DMSO-treated control cells” value in test [3] is listed as “significantly lower”. In addition, the “p-AKT S473 inhibition (in words)” value in test [4] is “strongly inhibited”. The inhibition at 10 µM came out at 35% in test [4] (read-out: Decrease of p-AKT S473 inhibition after 24 h as compared to 1-h treatment); 90% in [4] (setting [7]); 93% in [4] (setting [8]); 78% in test [4] (setting [9]); 66% in test [4] (setting [10]); 59% in test [4] (setting [11]). Further, the IC50 at mTOR (FRAP1) (internal data) was 443 nM; on PI3K (p110α), 2.6 nM. Further, in the test on CHA 9-3 cells, the “Frequency of MTS events per metaphase compared to DMSO” value is “significantly increased”. Further, in test [6], the “TRF1 protein levels in nuclear extracts” value is recorded as “significantly decreased”.
